Measured values taken from publication PMC5617977, “Antibacterial Activity and Toxicity of Analogs of Scorpion Venom IsCT Peptides” (Antibiotics, 2017).
“Also recorded” adds a separate entry of the source. Where no end group is shown, it is not given here.

What was measured:
[1] = tested on: Bacillus cereus (ATCC# 11778); assay: Antibacterial activity, standard broth (liquid) dilution; assay type: cell-based; conditions: for MIC B. cereus: Luria Bertani broth, peptide 1, 10, 50, 100 μg/mL, 37 °C, 24 h, absorbance 600 nm, MIC interpolated at 0% bacterial growth, average of three independent experiments
Method: (§1) Antimicrobial activities were determined by standard broth dilution against two Gram-positive and three Gram-negative bacteria. In general, the MICs seem to be higher than the concentrations tested in our experiments (Table 3). Only Staphylococcus aureus and Escherichia coli seem to be inhibited with both natural peptides but also by the leucine substituted analogue, IsCT1L1, at concentrations lower than 25 μg/mL. […] Curiously, some peptides—such as IsCT1V1, IsCT1E7, or even natural IsCT1—when tested with Bacillus cereus show significant bacteria growth inhibition at concentrations lower than 10 μg/mL.
(§2) Two Gram-positive bacteria: Staphylococcus aureus (ATCC# 29213) and Bacillus cereus (ATCC# 11778); and three Gram-negative bacteria: Salmonella typhimurium (ATCC# 14028), Enterobacter aerogenes (ATCC# 13048), and Escherichia coli (ATCC# 25922) were tested.
(§3) Activity was determined by the standard liquid dilution method described previously. All results are the average of three independent experiments. Briefly, cells were grown overnight at 37 °C in Luria Bertani broth and diluted in the same medium for assays. Bacteria were added to serial dilutions of the peptides (final concentrations of 1, 10, 50, and 100 μg/mL) and incubated at 37 °C for 24 h. Cell growth was measured by UV absorbance at 600 nm. For each bacterium, a solution containing no peptide (concentration 0 μg/mL) was processed under identical conditions and used as control for 100% bacterial growth. MICs were obtained from interpolation of 0% bacterial growth from plots. Results are the average of three independent experiments.

[2] = tested on: Enterobacter aerogenes (ATCC# 13048); assay: as above; assay type: cell-based; conditions: Luria Bertani broth, peptide 1, 10, 50, 100 μg/mL, 37 °C, 24 h, absorbance 600 nm; MIC interpolated at 0% bacterial growth; average of three independent experiments
Method: as §1, §2, §3

[3] = tested on: Escherichia coli (ATCC# 25922); assay: as above; assay type: cell-based; conditions: Luria Bertani broth, peptide 1, 10, 50, 100 μg/mL, 37 °C, 24 h, absorbance 600 nm; MIC interpolated at 0% bacterial growth; average of three independent experiments
Method: as §1, §2, §3

[4] = tested on: Salmonella typhimurium (ATCC# 14028); assay: as above; assay type: cell-based; conditions: Luria Bertani broth, peptide 1, 10, 50, 100 μg/mL, 37 °C, 24 h, absorbance 600 nm; MIC interpolated at 0% bacterial growth; average of three independent experiments
Method: as §1, §2, §3

[5] = tested on: Staphylococcus aureus (ATCC# 29213); assay: as above; assay type: cell-based; conditions: Luria Bertani broth, peptide 1, 10, 50, 100 μg/mL, 37 °C, 24 h, absorbance 600 nm; MIC interpolated at 0% bacterial growth; average of three independent experiments
Method: as §1, §2, §3

[6] = tested on: human erythrocytes; assay: Hemolytic activity; assay type: cell-based; conditions: 1% human erythrocytes in 1× PBS, peptide 1, 10, 50, 100 μg/mL, 37 °C, 1 h, hemoglobin at 416 nm, 100% control 1% TritonX-100; average of two independent experiments
Method: Hemolytic activity was carried out as described previously. Briefly, serial concentrations of peptides (final concentrations of 0 as blank, 1, 10, 50, and 100 μg/mL) were added to 1% human erythrocytes in 1× PBS buffer. The cell suspensions were incubated at 37 °C for 1 h and then centrifuged to remove unlysed erythrocytes. Released hemoglobin was determined spectrophotometrically at 416 nm. The control for 100% release of hemoglobin was a sample of 1% erythrocyte incubated in PBS with 1% TritonX-100. Results are the average of two independent experiments.

[7] = tested on: Pseudomonas aeruginosa and Proteus mirabilis; conditions: printed as 100 or more than 200; ref Dai [21]; cited from earlier work
Method: (§4) Studies of bacterial inhibition carried out by Dai with IsCT1 and IsCT2 natural peptides show a range of MICs of 1 to 5 μg/mL for different strains of S. aureus and 10 to 25 μg/mL for two strains of Bacillus. For Gram-negative bacteria, they show 5 to 120 μg/mL for two strains of E. coli but 100 or more than 200 μg/mL for other strains of Gram-negative bacteria (Pseudomonas aeruginosa and Proteus mirabilis). Bacterial inhibition studies by Kim with IsCT show MICs of 6 μg/mL for E. coli and 3 μg/mL for S. aureus and, for the IsCT1K7 analog, the reported concentrations are 3 and 1.5 μg/mL ...

[8] = tested on: E. coli; conditions: ref Kim [16]; cited from earlier work
Method: as §4

[9] = tested on: S. aureus; conditions: ref Kim [16]; cited from earlier work
Method: as §4

Substance	MIC B. cereus [1] [µg/mL]	MIC E. aerogenes [2] [µg/mL]	MIC E. coli [3] [µg/mL]	MIC S. typhimurium [4] [µg/mL]	MIC S. aureus [5] [µg/mL]	Hemolytic activity (in words) [6]	MIC, other Gram-negative strains (Pseudomonas aeruginosa and Proteus mirabilis) [7] [µg/mL]	concentration showing significant bacteria growth inhibition, Bacillus cereus ([1]; inhibition at low concentration, then plateau or slight increase of growth at higher concentrations (Figure S2))	MIC E. coli [8] [µg/mL]	MIC S. aureus [9] [µg/mL]
IFGAIWNGIKSLF-NH2 [IsCT2, reference compound]	100	>100	50	100	50	highest hemolytic activity	≥ 100			
ILGAAWNGAKSLF-NH2 [IsCT2A1, alanine substituted (positions 5 and 9) analog of IsCT2]	>100	>100	>100	>100	>100					
ILGAVWNGVKSLF-NH2 [IsCT2V1, valine substituted (positions 5 and 9) analog of IsCT2]	>100	>100	>100	>100	>100					
ILGKAWEGAKSLF-NH2 [IsCT1A1]	>100	>100	>100	>100	>100					
ILGKIWEGIESLF-NH2 [IsCT1E7]	>100	>100	>100	>100	>100	no toxicity at all; also recorded: do not have any apparent citotoxicity; also recorded: no apparent cytotoxicity				
ILGKIWEGIKSLF-NH2 [IsCT1, reference compound]	>100	>100	50	100	50	highest hemolytic activity	≥ 100	lower than 10 μg/mL	6	3
ILGKIWKGIKSLF-NH2 [IsCT1K7]	>100	>100	>100	100	100	highest hemolytic activity				
ILGKLWEGLKSLF-NH2 [IsCT1L1]	>100	>100	50	100	50	highest hemolytic activity; also recorded: toxicity similar to the wild type peptides				
ILGKVWEGVKSLF-NH2 [IsCT1V1]	>100	>100	>100	>100	>100					
